Reference: ChEMBL document CHEMBL1201862, “PubChem BioAssay data set” (2004)
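Values below derive from 48-hour exposures of cells grown in 96-well plates, with endpoints linearly interpolated between the two concentrations bracketing the appropriate inhibition level. GI50 = concentration required for 50% inhibition of growth.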 The source made the active and inactive calls. No stated cut-off is given here; in the data, active = GI50 up to about 1.1 µM and inactive = higher.

Experiments:
Experiment in all cases: inhibition of tumour cell growth, NCI panel, 48 h
OVCAR-4 = test system: OVCAR-4
OVCAR-8 = test system: OVCAR-8
SR = test system: SR
ACHN = test system: ACHN
DLD-1 = test system: DLD-1
M19-MEL = test system: M19-MEL
KM-20L2 = test system: KM-20L2
DMS-114 = test system: DMS-114
EKVX = test system: EKVX
LOX IMVI = test system: LOX IMVI
Malme-3M = test system: Malme-3M
SNB-19 = test system: SNB-19
HT-29 = test system: HT-29
MOLT-4 = test system: MOLT-4
U-251 = test system: U-251
HCT-116 = test system: HCT-116
COLO 205 = test system: COLO 205
HCC 2998 = test system: HCC 2998
HCT-15 = test system: HCT-15
A498 = test system: A498
SF-539 = test system: SF-539
TK-10 = test system: TK-10
SK-MEL-2 = test system: SK-MEL-2
RXF 631 = test system: RXF 631
K562 = test system: K562
NCI-H23 = test system: NCI-H23
HL-60 = test system: HL-60
SN12C = test system: SN12C
M14 = test system: M14
SF-295 = test system: SF-295
UO-31 = test system: UO-31
UACC-257 = test system: UACC-257
DMS-273 = test system: DMS-273
IGROV-1 = test system: IGROV-1
HOP-62 = test system: HOP-62
LXFL 529 = test system: LXFL 529
CCRF-CEM = test system: CCRF-CEM
RXF 393 = test system: RXF 393
NCI-H460 = test system: NCI-H460
SF-268 = test system: SF-268
UACC-62 = test system: UACC-62
SK-MEL-5 = test system: SK-MEL-5
SNB-75 = test system: SNB-75
A549 = test system: A549
NCI-H226 = test system: NCI-H226
SW-620 = test system: SW-620
OVCAR-3 = test system: OVCAR-3
SK-MEL-28 = test system: SK-MEL-28
RPMI-8226 = test system: RPMI-8226
786-0 = test system: 786-0
KM12 = test system: KM12
SNB-78 = test system: SNB-78
CAKI-1 = test system: CAKI-1
OVCAR-5 = test system: OVCAR-5
SK-OV-3 = test system: SK-OV-3
NCI-H522 = test system: NCI-H522
HOP-18 = test system: HOP-18
HOP-92 = test system: HOP-92
XF498 = test system: XF498

For `Cc1nc([N+](=O)[O-])cn1CC(=N)N`, the GI50 (OVCAR-4) was > 100 µM (inactive), the GI50 (OVCAR-8) was > 100 µM (inactive) and the GI50 (SR) was > 100 µM (inactive). The GI50 (ACHN) was > 100 µM (inactive), the GI50 (DLD-1) was > 100 µM (inactive) and the GI50 (M19-MEL) was > 100 µM (inactive). The GI50 (KM-20L2) was > 100 µM (inactive), the GI50 (DMS-114) was > 100 µM (inactive) and the GI50 (EKVX) was > 100 µM (inactive). The GI50 (LOX IMVI) was > 100 µM (inactive), the GI50 (Malme-3M) was > 100 µM (inactive) and the GI50 (SNB-19) was > 100 µM (inactive). The GI50 (HT-29) was > 100 µM (inactive), the GI50 (MOLT-4) was > 100 µM (inactive) and the GI50 (U-251) was > 100 µM (inactive). The GI50 (HCT-116) was > 100 µM (inactive), the GI50 (COLO 205) was > 100 µM (inactive) and the GI50 (HCC 2998) was > 100 µM (inactive). The GI50 (HCT-15) was > 100 µM, the GI50 (A498) was > 100 µM (inactive) and the GI50 (SF-539) was > 100 µM (inactive). For the same compound, the GI50 (TK-10) was > 100 µM (inactive), the GI50 (SK-MEL-2) was > 100 µM (inactive) and the GI50 (RXF 631) was > 100 µM (inactive). The GI50 (K562) was > 100 µM (inactive), the GI50 (NCI-H23) was > 100 µM (inactive) and the GI50 (HL-60) was > 100 µM (inactive). For the same compound, the GI50 (SN12C) was > 100 µM (inactive), the GI50 (M14) was > 100 µM (inactive) and the GI50 (SF-295) was > 100 µM (inactive). For the same compound, the GI50 (UO-31) was > 100 µM (inactive), the GI50 (UACC-257) was > 100 µM (inactive) and the GI50 (DMS-273) was > 100 µM (inactive). For the same compound, the GI50 (IGROV-1) was > 100 µM (inactive), the GI50 (HOP-62) was > 100 µM (inactive) and the GI50 (LXFL 529) was > 100 µM (inactive). The GI50 (CCRF-CEM) was > 100 µM (inactive), the GI50 (RXF 393) was > 100 µM (inactive) and the GI50 (NCI-H460) was > 100 µM (inactive). The GI50 (SF-268) was > 100 µM (inactive), the GI50 (UACC-62) was > 100 µM (inactive) and the GI50 (SK-MEL-5) was > 100 µM (inactive). The GI50 (SNB-75) was 20.8 µM (inactive), the GI50 (A549) was > 100 µM (inactive) and the GI50 (NCI-H226) was > 100 µM (inactive). The GI50 (SW-620) was > 100 µM (inactive), the GI50 (OVCAR-3) was > 100 µM (inactive) and the GI50 (SK-MEL-28) was > 100 µM (inactive). For the same compound, the GI50 (RPMI-8226) was > 100 µM (inactive) and the GI50 (786-0) was > 100 µM (inactive).
`CCOc1ccccc1NC(=O)C(=O)c1c(O)c2ccc(O)cc2oc1=O` was tested, and the GI50 (OVCAR-4) was > 100 µM (inactive), the GI50 (OVCAR-8) was > 100 µM (inactive) and the GI50 (SR) was > 100 µM (inactive). The GI50 (ACHN) was > 100 µM (inactive), the GI50 (DLD-1) was > 100 µM (inactive) and the GI50 (M19-MEL) was > 100 µM (inactive). For the same compound, the GI50 (KM-20L2) was > 100 µM (inactive), the GI50 (KM12) was > 100 µM (inactive) and the GI50 (EKVX) was > 100 µM (inactive). For the same compound, the GI50 (LOX IMVI) was > 100 µM (inactive), the GI50 (Malme-3M) was > 100 µM (inactive) and the GI50 (SNB-78) was > 100 µM (inactive). The GI50 (SNB-19) was > 100 µM (inactive), the GI50 (HT-29) was > 100 µM (inactive) and the GI50 (MOLT-4) was > 100 µM (inactive). For the same compound, the GI50 (U-251) was > 100 µM (inactive), the GI50 (HCT-116) was > 100 µM (inactive) and the GI50 (COLO 205) was > 100 µM (inactive). The GI50 (HCC 2998) was > 100 µM (inactive), the GI50 (HCT-15) was > 100 µM and the GI50 (A498) was > 100 µM (inactive). The GI50 (CAKI-1) was > 100 µM (inactive), the GI50 (SF-539) was > 100 µM (inactive) and the GI50 (TK-10) was > 100 µM (inactive). The GI50 (OVCAR-5) was > 100 µM (inactive), the GI50 (SK-MEL-2) was > 100 µM (inactive) and the GI50 (RXF 631) was > 100 µM (inactive). The GI50 (K562) was > 100 µM (inactive), the GI50 (NCI-H23) was > 100 µM (inactive) and the GI50 (HL-60) was > 100 µM (inactive). For the same compound, the GI50 (SN12C) was > 100 µM (inactive), the GI50 (SK-OV-3) was > 100 µM (inactive) and the GI50 (M14) was > 100 µM (inactive). The GI50 (SF-295) was > 100 µM (inactive), the GI50 (UO-31) was > 100 µM (inactive) and the GI50 (UACC-257) was > 100 µM (inactive). The GI50 (DMS-273) was > 100 µM (inactive), the GI50 (IGROV-1) was > 100 µM (inactive) and the GI50 (HOP-62) was > 100 µM (inactive). The GI50 (LXFL 529) was > 100 µM (inactive), the GI50 (NCI-H522) was > 100 µM (inactive) and the GI50 (CCRF-CEM) was > 100 µM (inactive). The GI50 (RXF 393) was > 100 µM (inactive), the GI50 (NCI-H460) was > 100 µM (inactive) and the GI50 (SF-268) was > 100 µM (inactive). The GI50 (UACC-62) was > 100 µM (inactive), the GI50 (SK-MEL-5) was > 100 µM (inactive) and the GI50 (HOP-18) was > 100 µM (inactive). For the same compound, the GI50 (SNB-75) was > 100 µM (inactive), the GI50 (A549) was > 100 µM (inactive) and the GI50 (NCI-H226) was > 100 µM (inactive). For the same compound, the GI50 (SW-620) was > 100 µM (inactive), the GI50 (OVCAR-3) was > 100 µM (inactive) and the GI50 (SK-MEL-28) was > 100 µM (inactive). The GI50 (786-0) was > 100 µM (inactive).
In the case of `CCOC(=O)N1CCc2cc(OC)c(OC)cc2/C1=C/c1ccc(OC)c(OC)c1`, the GI50 (OVCAR-8) is reported as > 10 µM (inactive), the GI50 (SR) is reported as 34.1 µM (inactive) and the GI50 (ACHN) is reported as 52.2 µM (inactive). For the same compound, the GI50 (DLD-1) was 48.6 µM (inactive), the GI50 (M19-MEL) was 45.9 µM (inactive) and the GI50 (KM-20L2) was 38.3 µM (inactive). The GI50 (KM12) was 45.3 µM (inactive), the GI50 (DMS-114) was 40 µM (inactive) and the GI50 (EKVX) was 79.4 µM (inactive). For the same compound, the GI50 (LOX IMVI) was 52.2 µM (inactive), the GI50 (Malme-3M) was 20 µM (inactive) and the GI50 (SNB-78) was 38 µM (inactive). For the same compound, the GI50 (SNB-19) was 58.3 µM (inactive), the GI50 (HT-29) was 28.4 µM (inactive) and the GI50 (MOLT-4) was 33.2 µM (inactive). The GI50 (U-251) was 44.5 µM (inactive), the GI50 (HCT-116) was 38.4 µM (inactive) and the GI50 (COLO 205) was 37.8 µM (inactive). For the same compound, the GI50 (HCC 2998) was 42.6 µM (inactive), the GI50 (HCT-15) was 36.1 µM and the GI50 (A498) was 56.4 µM (inactive). For the same compound, the GI50 (SF-539) was > 100 µM (inactive), the GI50 (TK-10) was > 100 µM (inactive) and the GI50 (OVCAR-5) was 94 µM (inactive). For the same compound, the GI50 (SK-MEL-2) was 51.6 µM (inactive), the GI50 (K562) was 35.5 µM (inactive) and the GI50 (NCI-H23) was 36.1 µM (inactive). The GI50 (HL-60) was 23.6 µM (inactive), the GI50 (SN12C) was 35.6 µM (inactive) and the GI50 (SK-OV-3) was > 100 µM (inactive). For the same compound, the GI50 (M14) was 82.8 µM (inactive), the GI50 (SF-295) was 52.2 µM (inactive) and the GI50 (UO-31) was 27.8 µM (inactive). The GI50 (UACC-257) was 37.2 µM (inactive), the GI50 (DMS-273) was 49.2 µM (inactive) and the GI50 (IGROV-1) was > 100 µM (inactive). The GI50 (HOP-62) was 84.5 µM (inactive), the GI50 (LXFL 529) was 34.6 µM (inactive) and the GI50 (NCI-H522) was 40.1 µM (inactive). The GI50 (CCRF-CEM) was 29 µM (inactive), the GI50 (RXF 393) was 37.9 µM (inactive) and the GI50 (SF-268) was 79.6 µM (inactive). The GI50 (UACC-62) was 55.8 µM (inactive), the GI50 (SK-MEL-5) was 20.9 µM (inactive) and the GI50 (HOP-18) was > 100 µM (inactive). For the same compound, the GI50 (SNB-75) was 37.9 µM (inactive), the GI50 (A549) was 43.1 µM (inactive) and the GI50 (HOP-92) was 30.5 µM (inactive). The GI50 (NCI-H226) was 69.5 µM (inactive), the GI50 (XF498) was 30 µM (inactive) and the GI50 (SW-620) was 46.2 µM (inactive). For the same compound, the GI50 (OVCAR-3) was 61.4 µM (inactive), the GI50 (SK-MEL-28) was > 100 µM (inactive) and the GI50 (RPMI-8226) was 19.3 µM (inactive). For the same compound, the GI50 (786-0) was 42.8 µM (inactive).
